Assay results as given in the supplement of paper PMC10307832.

What was measured:
Assay in all cases: relative viability (nuclei count vs DMSO), 5 days (fraction); higher = more cells survive
NCI-H322M = conditions: first compound 4 µM
In short: (§1)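 Lung cancer cell lines were seeded in 1536-well plates and dosed by pin tool the next day, with either a single drug or a fixed anchor-drug dose combined with five library-drug doses (not always all listed) spaced in √10 steps. Five days later, one step fixed the cells and stained their nuclei (final 0.05% Triton X-100, 1% formaldehyde, 1 ug/ml Hoechst), and nuclei were counted on 4× images. Relative viability is the nuclei count in treated wells divided by the count in vehicle wells, and each value is the median of duplicate plates.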

NCI-H2126 = system: NCI-H2126
In short: as §1

NCI-H2023 = system: NCI-H2023
In short: as §1

NCI-H661 = system: NCI-H661
In short: as §1

PC-14 = system: PC-14
In short: as §1

SW 1573 = system: SW 1573
In short: as §1

LCLC-97TM1 = system: LCLC-97TM1
In short: as §1

NCI-H647 = system: NCI-H647
In short: as §1

H3255 = system: H3255
In short: as §1

SK-LU-1 = system: SK-LU-1
In short: as §1

HOP-62 = system: HOP-62
In short: as §1

NCI-H2085 = system: NCI-H2085
In short: as §1

Cc1sc2c(c1C)C(c1ccc(Cl)cc1)=N[C@@H](CC(=O)OC(C)(C)C)c1nnc(C)n1-2 [JQ1] + C[C@]1(O)C[C@@H](c2nc(-c3ccc4ccc(-c5ccccc5)nc4c3)c3c(N)nccn32)C1 [Linsitinib] (partner 1 µM)
relative viability (NCI-H322M): 0.462 | relative viability (NCI-H2126; first compound 0.04 µM): 0.725 | relative viability (NCI-H2126; first compound 0.1265 µM): 1.52 | relative viability (NCI-H2126; first compound 0.4 µM): 0.651 | relative viability (NCI-H2126; first compound 1.265 µM): 0.559 | relative viability (NCI-H2126; first compound 4 µM): 0.432 | relative viability (NCI-H2023; first compound 0.04 µM): 0.653 | relative viability (NCI-H2023; first compound 0.1265 µM): 0.576 | relative viability (NCI-H2023; first compound 0.4 µM): 0.379 | relative viability (NCI-H2023; first compound 1.265 µM): 0.207 | relative viability (NCI-H2023; first compound 4 µM): 0.157 | relative viability (NCI-H661; first compound 0.04 µM): 0.635 | relative viability (NCI-H661; first compound 0.1265 µM): 0.512 | relative viability (NCI-H661; first compound 0.4 µM): 0.391 | relative viability (NCI-H661; first compound 1.265 µM): 0.305 | relative viability (NCI-H661; first compound 4 µM): 0.352 | relative viability (PC-14; first compound 0.04 µM): 0.936 | relative viability (PC-14; first compound 0.1265 µM): 0.735 | relative viability (PC-14; first compound 0.4 µM): 0.779 | relative viability (PC-14; first compound 1.265 µM): 0.611 | relative viability (PC-14; first compound 4 µM): 0.356 | relative viability (SW 1573; first compound 0.04 µM): 0.697 | relative viability (SW 1573; first compound 0.1265 µM): 0.789 | relative viability (SW 1573; first compound 0.4 µM): 0.711 | relative viability (SW 1573; first compound 1.265 µM): 0.339 | relative viability (SW 1573; first compound 4 µM): 0.323 | relative viability (LCLC-97TM1; first compound 0.1265 µM): 0.181 | relative viability (LCLC-97TM1; first compound 0.4 µM): 0.212 | relative viability (LCLC-97TM1; first compound 1.265 µM): 0.125 | relative viability (LCLC-97TM1; first compound 4 µM): 0.156 | relative viability (NCI-H647; first compound 0.04 µM): 1.12 | relative viability (NCI-H647; first compound 0.1265 µM): 0.754 | relative viability (NCI-H647; first compound 0.4 µM): 0.568 | relative viability (NCI-H647; first compound 1.265 µM): 0.151 | relative viability (NCI-H647; first compound 4 µM): 0.16 | relative viability (H3255; first compound 0.04 µM): 0.913 | relative viability (H3255; first compound 0.1265 µM): 0.728 | relative viability (H3255; first compound 0.4 µM): 0.881 | relative viability (H3255; first compound 1.265 µM): 0.402 | relative viability (H3255; first compound 4 µM): 0.328 | relative viability (SK-LU-1; first compound 0.04 µM): 1.16 | relative viability (SK-LU-1; first compound 0.1265 µM): 0.952 | relative viability (SK-LU-1; first compound 0.4 µM): 0.782 | relative viability (SK-LU-1; first compound 1.265 µM): 0.239 | relative viability (SK-LU-1; first compound 4 µM): 0.178 | relative viability (HOP-62; first compound 0.04 µM): 1.01 | relative viability (HOP-62; first compound 0.1265 µM): 0.869 | relative viability (HOP-62; first compound 0.4 µM): 0.694 | relative viability (HOP-62; first compound 1.265 µM): 0.11 | relative viability (HOP-62; first compound 4 µM): 0.106 | relative viability (NCI-H2085; first compound 0.04 µM): 0.99 | relative viability (NCI-H2085; first compound 0.1265 µM): 0.652 | relative viability (NCI-H2085; first compound 0.4 µM): 0.642 | relative viability (NCI-H2085; first compound 1.265 µM): 0.687 | relative viability (NCI-H2085; first compound 4 µM): 0.453
